Molecular target: T1, His-hMAGL (recombinant polyhistidine tagged human MAGL protein) (Homo sapiens, UniProt Q99685)
T1 construct: made in house; host or cells: E. coli BL21(DE3)
T1 sequence (Q99685 1-303): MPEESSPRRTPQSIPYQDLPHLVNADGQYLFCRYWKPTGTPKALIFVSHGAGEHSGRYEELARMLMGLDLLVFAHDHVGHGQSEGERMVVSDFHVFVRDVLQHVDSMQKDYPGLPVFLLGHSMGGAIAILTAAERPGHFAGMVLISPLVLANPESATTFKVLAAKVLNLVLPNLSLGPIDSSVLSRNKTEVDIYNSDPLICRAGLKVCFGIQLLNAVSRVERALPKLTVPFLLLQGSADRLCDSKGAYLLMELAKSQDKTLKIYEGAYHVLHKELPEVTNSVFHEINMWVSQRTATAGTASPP
Test: Measurement of MAGL inhibitory activity (arachidonic acid production from 2-arachidonylglycerol, RapidFire-mass spectrometry)
Assay type: biochemical
Conditions: test compound 10 μM; MAGL inhibitory rate
Method: The His-hMAGL obtained above was diluted with enzyme reaction buffer (10 mM Tris-HCl, pH 7.5, 1 mM EDTA, 0.025 (w/v) % Triton X-100, 0.01% Bovine serum albumin) to a concentration of 7.5 ng/mL. To each well of a 384 well assay plate (Greiner 781280) was added a solution (5 μL) of a test compound dissolved in dimethyl sulfoxide (DMSO), which was diluted with the above-mentioned enzyme reaction buffer, then His-hMAGL solution (5 μL) diluted to a concentration of 7.5 ng/mL was added, and the mixture was incubated at room temperature for 60 min. Thereafter, to each well was added 5 μL of 150 μM 2-arachidonylglycerol (Tocris Bioscience), and the mixture was incubated at room temperature for 10 min. Then, 10 μL of 2% formic acid (Wako Pure Chemical Industries, Ltd.) was added to stop the reaction. Furthermore, acetonitrile (50 μL) containing 3 μM arachidonic acid-d8 (Cayman Chemical Company) was added and the mixture was stirred.
The amount of arachidonic acid in the obtained enzyme reaction mixture was calculated by measuring by RapidFire-mass spectrometry and correcting by the amount of arachidonic acid-d8. High Throughput online solid phase extraction was performed using RapidFire 300™ system (Agilent Technologies, Inc.). Samples were loaded on SPE C4 cartridge (Agilent Technologies, Inc.) and desalted with 0.2 (v/v) % acetic acid (Wako Pure Chemical Industries, Ltd.) in ultrapure water/acetonitrile (70/30, v/v) at a flow rate of 1.5 mL/min, eluted at a flow rate of 0.5 mL/min with 0.2 (v/v) % acetic acid dissolved in acetonitrile/ultrapure water (90/10, v/v), and injected into the mass spectrometry part. The injection needle was washed with ultrapure water (500 millisecond) and acetonitrile (500 millisecond) to minimize carry-over. The suction time (injection loop 5 μL), load/cleansing time, elution time and re-equilibration time were adjusted to 300, 3000, 4250 and 1000 milliseconds, respectively, and the total cycle time was adjusted to about 10.0 seconds. The RapidFire300 system was controlled by RapidFire UI software version 3.6 (Agilent Technologies, Inc.).
The mass spectrometry of the resultant product was performed using API4000™ triple quadrupole mass spectrometer (AB SCIEX) equipped with an electrospray ion sauce (TurboIon Spray™) in a negative selected reaction monitoring (SRM) mode. The conditions of SRM are shown below. The parameters of the instrument were optimized as follows: capillary temperature 600° C., ion spray voltage −4.5 kV, collision gas 8, curtain gas 15 psi, ion source gas 1 60 psi, ion source gas 2 60 psi. The mass spectrometer was controlled by Analyst™ software version 1.5.1 (AB SCIEX). The peak area integration was analyzed using RapidFire integrator software version 3.6 (Agilent Technologies, Inc.).
MAGL inhibitory rate (%) was calculated according to the following calculation formula. (1-(arachidonic acid production amount of test compound addition group−arachidonic acid production amount of enzyme-free group)+(arachidonic acid production amount of test compound-free group−arachidonic acid production amount of enzyme-free group))×100

SMILES | inhibition at 10 µM
O=C1NC2(CO1)CN(C(=O)O[C@H]1C[C@@H](Oc3ccc(C(F)(F)F)cc3F)C1)C2 [Example 1, cis-3-(2-fluoro-4-(trifluoromethyl)phenoxy)cyclobutyl 6-oxo-7-oxa-2,5-diazaspiro[3.4]octane-2-carboxylate] | 100%
O=C1NC2(CO1)CN(C(=O)O[C@H]1C[C@@H](OCc3ccccc3)C1)C2 [Example 2, cis-3-(benzyloxy)cyclobutyl 6-oxo-7-oxa-2,5-diazaspiro[3.4]octane-2-carboxylate] | 101%
Cc1ccc(CO[C@H]2C[C@@H](OC(=O)N3CC4(COC(=O)N4)C3)C2)cc1Cl [Example 3, cis-3-((3-chloro-4-methylbenzyl)oxy)cyclobutyl 6-oxo-7-oxa-2,5-diazaspiro[3.4]octane-2-carboxylate] | 101%
Cc1cc(CO[C@H]2C[C@@H](OC(=O)N3CC4(COC(=O)N4)C3)C2)ccc1Cl [Example 4, cis-3-((4-chloro-3-methylbenzyl)oxy)cyclobutyl 6-oxo-7-oxa-2,5-diazaspiro[3.4]octane-2-carboxylate] | 100%
Cc1ccc(CO[C@H]2C[C@@H](OC(=O)N3CC4(COC(=O)N4)C3)C2)c(F)c1F [Example 5, cis-3-((2,3-difluoro-4-methylbenzyl)oxy)cyclobutyl 6-oxo-7-oxa-2,5-diazaspiro[3.4]octane-2-carboxylate] | 99%
O=C1NC2(CO1)CN(C(=O)O[C@H]1C[C@@H](OCc3ccc(F)c(F)c3F)C1)C2 [Example 6, cis-3-((2,3,4-trifluorobenzyl)oxy)cyclobutyl 6-oxo-7-oxa-2,5-diazaspiro[3.4]octane-2-carboxylate] | 101%
O=C1NC2(CO1)CN(C(=O)O[C@H]1C[C@@H](OCc3cc(F)c(F)cc3F)C1)C2 [Example 7, cis-3-((2,4,5-trifluorobenzyl)oxy)cyclobutyl 6-oxo-7-oxa-2,5-diazaspiro[3.4]octane-2-carboxylate] | 100%
O=C1NC2(CO1)CN(C(=O)O[C@H]1C[C@@H](OCc3c(F)cc(F)cc3F)C1)C2 [Example 8, cis-3-((2,4,6-trifluorobenzyl)oxy)cyclobutyl 6-oxo-7-oxa-2,5-diazaspiro[3.4]octane-2-carboxylate] | 100%
O=C1NC2(CO1)CN(C(=O)O[C@H]1C[C@@H](OCc3ccc(Cl)c(Cl)c3)C1)C2 [Example 9, cis-3-((3,4-dichlorobenzyl)oxy)cyclobutyl 6-oxo-7-oxa-2,5-diazaspiro[3.4]octane-2-carboxylate] | 99%
O=C1NC2(CO1)CN(C(=O)O[C@H]1C[C@@H](OCc3ccc(C(F)(F)F)cc3F)C1)C2 [Example 10, cis-3-((2-fluoro-4-(trifluoromethyl)benzyl)oxy)cyclobutyl 6-oxo-7-oxa-2,5-diazaspiro[3.4]octane-2-carboxylate] | 99%
O=C1NC2(CO1)CN(C(=O)O[C@H]1C[C@@H](OCc3ccc(C(F)(F)F)c(Cl)c3)C1)C2 [Example 11, cis-3-((3-chloro-4-(trifluoromethyl)benzyl)oxy)cyclobutyl 6-oxo-7-oxa-2,5-diazaspiro[3.4]octane-2-carboxylate] | 100%
Cc1ccc(OC[C@H]2C[C@@H](OC(=O)N3CC4(COC(=O)N4)C3)C2)c(F)c1 [Example 12, cis-3-((2-fluoro-4-methylphenoxy)methyl)cyclobutyl 6-oxo-7-oxa-2,5-diazaspiro[3.4]octane-2-carboxylate] | 101%
Cc1cc(F)ccc1OC[C@H]1C[C@@H](OC(=O)N2CC3(COC(=O)N3)C2)C1 [Example 13, cis-3-((4-fluoro-2-methylphenoxy)methyl)cyclobutyl 6-oxo-7-oxa-2,5-diazaspiro[3.4]octane-2-carboxylate] | 102%
O=C1NC2(CO1)CN(C(=O)O[C@H]1C[C@@H](COc3ccc(F)cc3Cl)C1)C2 [Example 14, cis-3-((2-chloro-4-fluorophenoxy)methyl)cyclobutyl 6-oxo-7-oxa-2,5-diazaspiro[3.4]octane-2-carboxylate] | 98%
O=C1NC2(CO1)CN(C(=O)O[C@H]1C[C@@H](COc3ccc(Cl)cc3F)C1)C2 [Example 15, cis-3-((4-chloro-2-fluorophenoxy)methyl)cyclobutyl 6-oxo-7-oxa-2,5-diazaspiro[3.4]octane-2-carboxylate] | 103%
O=C1NC2(CO1)CN(C(=O)O[C@H]1C[C@@H](COc3cc(F)c(F)cc3F)C1)C2 [Example 17, cis-3-((2,4,5-trifluorophenoxy)methyl)cyclobutyl 6-oxo-7-oxa-2,5-diazaspiro[3.4]octane-2-carboxylate] | 101%
O=C1NC2(CO1)CN(C(=O)O[C@H]1C[C@@H](COc3ccc(C(F)(F)F)cc3F)C1)C2 [Example 19, cis-3-((2-fluoro-4-(trifluoromethyl)phenoxy)methyl)cyclobutyl 6-oxo-7-oxa-2,5-diazaspiro[3.4]octane-2-carboxylate] | 98%
O=C1NC2(CO1)CN(C(=O)O[C@H]1C[C@@H](COc3ccc(C(F)(F)F)cc3Cl)C1)C2 [Example 20, cis-3-((2-chloro-4-(trifluoromethyl)phenoxy)methyl)cyclobutyl 6-oxo-7-oxa-2,5-diazaspiro[3.4]octane-2-carboxylate] | 100%
O=C1NC2(CO1)CN(C(=O)O[C@H]1C[C@H](COc3ccc(F)c(F)c3F)C1)C2 [Example 21, trans-3-((2,3,4-trifluorophenoxy)methyl)cyclobutyl 6-oxo-7-oxa-2,5-diazaspiro[3.4]octane-2-carboxylate] | 100%
O=C1NC2(CO1)CN(C(=O)O[C@H]1C[C@H](COc3ccc(C(F)(F)F)cc3F)C1)C2 [Example 22, trans-3-((2-fluoro-4-(trifluoromethyl)phenoxy)methyl)cyclobutyl 6-oxo-7-oxa-2,5-diazaspiro[3.4]octane-2-carboxylate] | 103%
O=C1NC2(CO1)CN(C(=O)OC[C@H]1C[C@@H](Oc3c(F)cc(F)cc3F)C1)C2 [Example 23, (cis-3-(2,4,6-trifluorophenoxy)cyclobutyl)methyl 6-oxo-7-oxa-2,5-diazaspiro[3.4]octane-2-carboxylate] | 100%
O=C1NC2(CO1)CN(C(=O)OC[C@H]1C[C@@H](Oc3ccc(C(F)(F)F)cc3F)C1)C2 [Example 24, (cis-3-(2-fluoro-4-(trifluoromethyl)phenoxy)cyclobutyl)methyl 6-oxo-7-oxa-2,5-diazaspiro[3.4]octane-2-carboxylate] | 103%
O=C1NC2(CO1)CN(C(=O)OC[C@H]1C[C@H](Oc3c(F)cc(F)cc3F)C1)C2 [Example 25, (trans-3-(2,4,6-trifluorophenoxy)cyclobutyl)methyl 6-oxo-7-oxa-2,5-diazaspiro[3.4]octane-2-carboxylate] | 100%
O=C1NC2(CO1)CN(C(=O)OC[C@H]1C[C@@H](Oc3ccc(C(F)(F)F)cc3Cl)C1)C2 [Example 26, (cis-3-(2-chloro-4-(trifluoromethyl)phenoxy)cyclobutyl)methyl 6-oxo-7-oxa-2,5-diazaspiro[3.4]octane-2-carboxylate] | 100%
O=C1NC2(CO1)CN(C(=O)OC[C@H]1C[C@H](Oc3ccc(C(F)(F)F)cc3Cl)C1)C2 [Example 27, (trans-3-(2-chloro-4-(trifluoromethyl)phenoxy)cyclobutyl)methyl 6-oxo-7-oxa-2,5-diazaspiro[3.4]octane-2-carboxylate] | 100%
Cc1ccc(COC[C@H]2C[C@@H](OC(=O)N3CC4(COC(=O)N4)C3)C2)cc1Cl [Example 28, cis-3-(((3-chloro-4-methylbenzyl)oxy)methyl)cyclobutyl 6-oxo-7-oxa-2,5-diazaspiro[3.4]octane-2-carboxylate] | 100%
